Measured values from patent US6291199A, “Human phosphodiesterase type IVC, and its production and use” (Celltech Therapeutics Limited, priority 1994, dated 2001).
Like-named read-outs stand apart in the source and are kept apart here.

Tests used:
[1] = test system: PDE IVA; details: in situ, CHO + beta 2 adrenergic receptor + PDE IVA, 10 uM inhibitor
Experimental: Transfected cells were harvested with non-enzymatic cell dissociation reagent (Sigma) washed three times and re-suspended in Dulbecco's phosphate buffered saline containing 0.1% BSA and 0.1% glucose (DPBS+). The cells were incubated with 10 uM inhibitor (or solvent control, 0.1% DMSO) in DPBS+for 10 min at 37° C. The cell suspension was stimulated with isoproterenol (0.001-1 uM) for 2 min. The cells were pelleted at 12000 g and resuspended in 400 uL of boiling assay buffer 1s (DuPont cAMP measurement kit). The samples were heated in a boiling water bath for 10 min and frozen before being assayed for cAMP using a commercial cAMP radioimmunoassay (DuPont).

[2] = test system: PDE IVA; experiment: Inhibition of recombinant human PDE IVA (cAMP hydrolysis); format: biochemical; details: enzyme from CHO cell lysates
[3] = test system: PDE IV A; details: read-out: IC50 for rolipram inhibition; literature; cited from earlier work
[4] = test system: PDE IV B; details: read-out: IC50 for rolipram inhibition; literature; cited from earlier work
[5] = test system: PDE IV D; details: read-out: IC50 for rolipram inhibition; literature; cited from earlier work
[6] = test system: recombinant PDE IV; details: Torphy et al. 1992; cited from earlier work
[7] = test system: HL60 cells; experiment: RT.PCR of PDE IV isoform mRNAs in Bt2 cAMP stimulated HL60 cells; format: cell-based, human; details: HL-60 cells
Experimental: (§1) To identify a source of gene C mRNA, a number of cell lines were assayed for isoform mRNAs by reverse transcription coupled to polymerase chain reaction (RT.PCR). Total RNA was prepared using RNAzol (Biogenesis) and polyA+ mRNA selected by affinity chromatography using oligodT cellulose. 50 ng of first strand cDNA prepared by reverse transcriptase was amplified with the following pairs of gene specific primers for 40 cycles using the conditions, 94° C. 1 min, 55° C. 1 min, 72° C. 3 min.
(§2) The results of RT.PCR using the human gene primers to detect isoform mRNAs in both human tissue culture cells and rat tissues confirms that PDE IV mRNAs are widely distributed though the apparent levels of each isoform mRNA varies. Gene C mRNA appears to be more abundant than A,B, or D in cells derived from dorsal root ganglia and testes in rat. This latter result is consistent with data reported previously by Swinnen et al. (1989) ibid.

[8] = test system: SKNSH cells; experiment: RT.PCR of PDE IV isoform mRNAs in Bt2 cAMP stimulated SKNSH cells; format: cell-based, human; details: SKN.SH cells
Experimental: as §1, §2

[9] = test system: PDE IVA; experiment: Inhibition of recombinant human PDE IVA (cAMP hydrolysis); format: biochemical
Experimental: Isolation of cDNA Clones for Gene A
A partial cDNA for gene A was isolated by PCR from a cDNA library prepared from PMA stimulated U937 cells using published sequence information (Livi G. et al. (1990) ibid)). Subsequently a conserved region probe form this cDNA was used to isolate a full length cDNA clone from a human frontal cortex cDNA library by hybridisation and washing at moderate stringency (final wash 2×SSC, 0.5% SDS at 60° C.).
The full length gene for PDE IVA was introduced into pEE7 and pYES vectors for expression in COS and yeast cells respectively.
Recombinant PDE IV enzymes were produced in COS cells by transient expression as described by Whittle N. et al. [(1987) Prot. Engineering 1 499-505]. Briefly […] cells/ml were transfected with 10 ug of plasmid. After 3 days in culture cells were washed with PBS and lysed by brief sonciation in 50 mM TES buffer, pH 7.6, (N. tris[hydroxymethyl]methyl) 2-aminoethane sulphonic acid containing proteases inhibitors (50 uM leupeptin, 1 uM pepstatin, 1 um phenylmethylsulphonylfluoride, 2 uM benzamidine). The cell homogenate was centrifuged ×12000 g for 10 min. and assayed for PDE IV activity.
For expression of PDE IVA and C in yeast cells, the two genes were inserted into the vector pYES (InVitrogen) as either Hind3/Xba1 (gene A) or EcoR1 (gene C) fragments isolated from pDEFC17 and pDEU7 vectors respectively. The resulting plasmids were designated as pDEFC 32 and pDEU8 respectively. Yeast cells (B7542: alpha, ura-3,trp1+, Leu2delta, pep4: His3, prBdelta 1.6R can 1, gal) were transformed with pDEFC32 and pDEU8 vectors using the lithium acetate method (Ito H. et al. (1983) J.Bacteriol. 51 163-168). Ura3 positive prototrophs were isolated and grown at 30° C. to an OD600 =1.0 in minimal media containing 2% glucose and […] leucine. Cells were recovered by centrifugation, washed and resuspended at OD600 =0.5 in minimal media containing 2% galactose to induce PDE IV expression. At an OD600 =1.0 cells were harvested, washed and broken in TES buffer plus proteases (see above) by milling with glass beads (425-600 um) at 4° C. The homogenate was clarified by centrifugation at 100,000 g for 30 mins at 4° C.
Enzyme reactions were carried out at pH 7.6 in 50 mM TES buffer containing 10 mM MgCl2, 3',5' cAMP (0.1 uM ^3 H-labelled 0.74-1.1 TBq/mmol) 5'AMP (2.5 uM ^14 C, 1.85-2.2 GBq/mmol) for 30 min at 30° C. Sufficient enzyme preparation was added to hydrolyse not more than 20% of substrate under these conditions. […] Reactions were stopped by rapid inactivation of enzyme by addition of trifluoroacetic acid to a final concentration of 1%. Substrate and product of reaction were separated as described by Smith et al. [(1993) Analyt. Biochem. 214 355-357] and the [^3 H] 5'AMP product analysed by scintillation counting. Correction for losses of [^3 H] […] during separation was made by reference to [^14 C] 5'AMP included in the reaction mixture.

[10] = test system: T lymphocytes; details: relative to other enantiomer; Sommer et al. 1995; cited from earlier work
[11] = test system: binding sites in the rodent forebrain tissue; details: Schmiechen et al.; Kaulen et al. 1989; cited from earlier work
[12] = test system: beta 2 adrenergic receptor; details: CHO cells expressing human beta2 adrenergic receptor; isoproterenol 0.001-1 uM, 2 min
Description: Isolation of Human Beta 2 Adrenergic Receptor Gene.
The human beta 2 adrenergic receptor gene (Kobilka B. et al. (1987) J.Biol. Chem. 262 7321-7327) was isolated from HL-60 cells genomic DNA by PCR using the following primers: […]
The plasmid was named pRO1 44.

[13] = test system: asthma; details: in vivo; cited from earlier work

COc1ccc(C2CNC(=O)C2)cc1OC1CCCC1 (racemic) [Rolipram]
reversal by rolipram of the prevention of cAMP accumulation, in words [1]: reversed
IC50 [2]: 287 nM
IC50 [3]: 200 to 500 nM
IC50 [4]: 200 to 500 nM
IC50 [5]: 200 to 500 nM
high affinity binding of rolipram, in words [6]: stereoselectivity for high affinity binding

CCCC(=O)Nc1ncnc2c1ncn2[C@@H]1O[C@@H]2COP(=O)(O)O[C@H]2[C@H]1OC(=O)CCC [Bt2 CAMP]
levels of PDE IV isoform mRNAs, in words [7]: levels of C and D but not A and B are elevated
levels of PDE IV isoform mRNAs, in words [8]: levels of C and D but not A and B are elevated

COc1ccc([C@@H]2CNC(=O)C2)cc1OC1CCCC1 [R-rolipram]
IC50 ([9]; enzyme from COS cells, read-out: IC50, PDE IVA): 292 nM
IC50 ([9]; enzyme from yeast, read-out: IC50, Yeast, A): 298 nM
IC50 [2]: 251 nM
effectiveness in suppression of TNF release [10]: approximately 50 times
affinity for binding sites over S-rolipram, in words [11]: higher affinity

CC(C)NCC(O)c1ccc(O)c(O)c1 (stereo not drawn) [isopreterenol]
cAMP levels, in words [12]: dose-dependent increase in cAMP levels

Cn1c(=O)c2[nH]cnc2n(C)c1=O [theophylline]
effect in asthma, in words [13]: has been shown to have a therapeutic effect
